Measurements as given in patent publication US20250114311A1, “IONIZABLE CATIONIC COMPOUNDS FOR MESSENGER RNA DELIVERY” (SEQIRUS INC., priority 2021, published 2025).

Columns and labels:
[1] = TNS fluorescence apparent pKa protocol for saRNA-LNP; type: physicochemical; conditions: saRNA-LNPs, TNS 6 μM, to 9.5, 25° C., EC50 of sigmoidal curve
Protocol: In a black 96-well plate, solutions of saRNA-LNP (final assay concentration 2 μg/mL total RNA) in a series of buffers ranging from pH 4 to 9.5 were prepared. Buffers between pH4 to 7.6 were prepared from disodium phosphate and citric acid. Buffers from 7.8 to 9.5 were prepared by titrating tris buffer with 10 N sodium hydroxide. To each well was added 6-(p-Toluidino)-2-naphthalenesulfonic acid sodium salt (TNS) in water to a final assay concentration of 6 μM. The fluorescence was read on a plate reader at 25° C. with an excitation setting of 321 nm and an emission setting of 445 nm. The intensity values were plotted as a function of pH using GraphPad Prism and were fit with a sigmoidal dose response curve. The apparent pKa was determined as the EC50 of this curve where half of the ionizable amines are expected to be protonated.

Balb/c mice = assay: Mouse immunogenicity study, antigen-specific T cells by intracellular cytokine staining; type: in vivo; conditions: prime-boost, LNPs with saRNA expressing H5 and N1, peptide stimulation, FIG. 6
BHK-V cells = assay: In vitro potency of saRNA-LNPs (antigen-expressing cells, flow cytometry); type: cell-based; conditions: FIG. 3
Protocol: The ability of the saRNA-LNPs to transfect cultured cells was characterized using an in vitro assay based on the percentage of cells expressing the antigen of interest. Specifically, 1 million BHK-V cells were co-incubated with saRNA-LNP of varying concentration (highest 50 ng per well, lowest 0.39 ng per well) in 0.3 mL of media for 17-19 hours at 37° C. with 5% CO2. Subsequently, the cells were scraped from the dish to form a single-cell suspension, fixed and permeabilized (BD Cytofix/Perm kit), and then stained with fluorophore-labeled antigen-specific antibodies against H5 and N1 (for saRNA expressing both H5 and N1). Luciferase expression was not measured for saRNA expressing both H5 and luciferase. The percentage of single or double antigen positive cells was quantified using a BD Accuri flow cytometer. […] The slope of that line multiplied by −100,000 was reported as the LNP potency. Alternatively, a similar assay was performed in a 96-well using BHK-21 cells and analysed using a Cytation 5 Cell Imaging Multimode Reader (Agilent). The results of this assay were analysed in the same way as described for the flow cytometry assay.

## CCCCCCCCCC(CCCCCCCCC(=O)OCC(CCCC)CCCCCC)OC(=O)CCCN(C)C (stereo not shown) [Compound 11]
[1]
  pKa: 6.25
Balb/c mice
  activated antigen-specific CD8 T cells: measurable levels
BHK-V cells; both saRNA constructs examined
  LNP potency (in vitro), comparison of the two LNPs: trended higher in potency
BHK-V cells; saRNA-LNP, 17-19 hours
  ability to transfect BHK-V cells in vitro: able to transfect
